The values that follow come from US4349526A, “Process for the production of hydrogen peroxide” (Degussa Aktiengesellschaft, priority 1980, dated 1982).

Assay in the first data set: not given
The following applies: in words; German AS; cited from earlier work.
As for `CC(C)(C)c1ccccc1` [tert. butyl benzene], the oxidation resistance result is “oxidation resistant”.

A further data set can be described thus: Oxidation breakdown on gassing with dry air at 140° C., 2.5 hours. The format is physicochemical. Conditions: 36 liters dry air per hour, 150 ml urea, decrease of urea based on starting content. As to the method: In a gassing apparatus equipped with gassing frit and intensive condenser in each case gassing was carried out with 150 ml of the ureas set forth in Table 4 using 36 liters of dry air per hour at a temperature of 140° C. for 2.5 hours. During the test half hourly samples were drawn off and the oxidative breakdown followed by means of capillary gas chromatography. As a measure for the oxidative breakdown the decrease of the amount of urea in percentage based on the starting urea content is used.
Consider `CCC(C)N(C)C(=O)N(C)c1ccccc1` (stereo not drawn) [N,N'-dimethyl-N-s-butyl-N'-phenylurea], for which the “Oxidation Breakdown After 2.5 hours” value is reported as 0%. On the same count and under the same terms, then `CN(C(=O)N1CCOCC1)c1ccccc1` [N'-methyl-N'-phenylcarbamoyl-N-morpholine], with 0%. In the case of `CC(C)N(C(=O)N(C)C)C(C)C` [N,N-dimethyl-N'-di-i-propylurea, reference compound], the “Oxidation Breakdown After 2.5 hours” value worked out at 2.6%. Still for that read-out and setting: then `CCCN(CCC)C(=O)N(C)c1ccccc1` [N,N-dipropyl-N'-methyl-N'-phenylurea], with 0%. As to `CCN(CC)C(=O)N(C)c1ccccc1` [N,N-diethyl-N'-methyl-N'-phenylurea], the “Oxidation Breakdown After 2.5 hours” value amounted to 0%.

In the case of `CC(C)N(C(=O)N(C)c1ccccc1)C(C)C` [N,N-di-i-propyl-N'-methyl-N'-phenylurea], the “Oxidation Breakdown After 2.5 hours” value is 0%. Turning to `CN(C)C(=O)N(C)c1ccccc1` [N,N,N'-trimethyl-N'-phenylurea], the “Oxidation Breakdown After 2.5 hours” value came out at 0%. With `CCCCN(CCCC)C(=O)N(C)c1ccccc1` [N,N-dibutyl-N'-methyl-N'-phenylurea], the “Oxidation Breakdown After 2.5 hours” value stood at 0%. Consider `CCCCN(CCCC)C(=O)N(CC)CC` [N,N-diethyl-N',N'-dibutylurea, reference compound], for which the “Oxidation Breakdown After 2.5 hours” value is listed as 9.2%.

The nature of a further data set: Density. It is filed as physicochemical. Conditions: Table 2.
In the case of `CCCN(CCC)C(=O)N(C)c1ccccc1` [N,N-dipropyl-N'-methyl-N'-phenylurea], the “Density (50° C.)” value amounted to 0.9690 g/mL.

With `CCN(CC)C(=O)N(C)c1ccccc1` [N,N-diethyl-N'-methyl-N'-phenylurea], the “Density (50° C.)” value is 0.9941 g/mL. The same measure, in the same setting: as for `CN(C)C(=O)N(C)c1ccccc1` [N,N,N'-trimethyl-N'-phenylurea], the figure is 1.0392 g/mL; as for `CCCCN(CCCC)C(=O)N(C)c1ccccc1` [N,N-dibutyl-N'-methyl-N'-phenylurea], 0.9499 g/mL.

The same data set, now with this note: Table 3.
As for `CCCCN(CCCC)C(=O)N(C)c1ccccc1` [N,N-dibutyl-N'-methyl-N'-phenylurea], the “Density (50° C.)” value is 0.950 g/mL.

A short description of a further data set: Oxidation resistance of hydroquinone solvents, gassing with dry air at 140° C., 50 hours. It is filed as physicochemical. The following applies: 36 liters dry air per hour, 150 ml solvent; gas chromatography. As to the method: The hydroquinone solvent content in percent based on the starting hydroquinone content was determined gas chromatographically and set forth in Table 5.
On to methylcyclohexyl acetate, for which the “Hydroquinone Solvent Content (%) after 50 hours Gassing at 140° C.” value (from here on “Hydroquinone Solvent Content (%)”) is 77.4%. Still for that read-out and setting: then `CC(C)CC(O)CC(C)C` [di-i-butylcarbinol], with 16.6%; and `CCCN(CCC)C(=O)N(C)c1ccccc1` [N,N-dipropyl-N'-methyl-N'-phenylurea], with 100.0%. `CCCCC(CC)COP(=O)(OCC(CC)CCCC)OCC(CC)CCCC` (stereo not drawn) [tris-2-ethylhexyl phosphate]: the “Hydroquinone Solvent Content (%)” value came out at 88.3%. In the case of N,N-di-i-propyl-N'-phenylurea, the “Hydroquinone Solvent Content (%)” value is on record as 100.0%.

Turning to `CCCCN(CCCC)C(=O)N(C)c1ccccc1` [N,N-dibutyl-N'-methyl-N'-phenylurea], the “Hydroquinone Solvent Content (%)” value is recorded as 100.0%. On the same count and under the same terms, as for `CCCCN(CCCC)C(=O)N(CC)CC` [N,N-diethyl-N',N'-dibutylurea, reference compound], the figure is 86.6%.

The next data set in a line: Mutual solubility of urea and water. The format is physicochemical.
Settings: not given
`CCCCN(CCCC)C(=O)N(C)c1ccccc1` [N,N-dibutyl-N'-methyl-N'-phenylurea]: the “Solubility in Water at 20° C.” value is recorded as 0.01%.

A short description of a further data set: Viscosity.
Settings: not given
The format is physicochemical.
In the case of `CCCCN(CCCC)C(=O)N(C)c1ccccc1` [N,N-dibutyl-N'-methyl-N'-phenylurea], the “Viscosity (50° C.)” value is 9.2 cP.
